Read-outs that look alike come from different tables or passages of the source. Where only a bound is given, the exact number is not on record here.

Consider two molecules from patent US20260021061A1, “ARIADNE AND ANALOGS FOR THE TREATMENT OF NEUROLOGICAL AND NEUROMUSCLAR DISORDERS” (priority 2022, published 2026).

Data set [1] relates to C57BL/6J mice. In words: Head twitch response (HTR) in mice. The class given is in vivo, mouse. The following applies: for HTR in presence of MDL100,907 (volinanserin), 5-HT2A antagonist: mouse, in vivo. Here is the method:
All samples were prepared the same day testing was performed. Solids were weighed into small vials and dissolved in USP grade 0.85% saline with addition of 2 molar equivalents of glacial acetic acid. Sonication and gentle heating were applied until complete dissolution. The compounds were subsequently filtered through 0.45 μm filters into a new glass vial. All compounds were administered at a 1 mg/kg subcutaneous dose at a volume of 10 mL/kg of body weight. Volinanserin hydrochloride salt (MDL 100907) was purchased from Toronto Research Chemicals.
All experimental procedures involving animals were approved by an Institutional Animal Care and Use Committee (IACUC) and adhered to principles described in the National Institutes of Health Guide for the Care and Use of Laboratory Animals. The studies were conducted at AAALAC accredited facilities. Animals received regular veterinary care (weekly by institutional veterinarians) including daily health monitoring (by experimenters) of the animals (observing home cage behaviors, nesting, and body weight). All procedures were designed to minimize any stress/distress. Healthy adult male mice C57BL/6J (8-12 weeks, 26-33 g) were purchased from the Jackson Laboratory (Bar Harbor, ME) and housed 5 mice per cage with food and water available ad libitum. Mice were maintained on a 12-h light/dark cycle (lights on 7:00-19:00) and all testing was done in the light cycle. Temperature was kept constant at 22±2° C., and relative humidity was maintained at 50±5%
The head-twitch response evaluation was performed by a trained observer who was blinded to both drug and dose. Mice were moved to the testing room 30 min before the experiment to allow for acclimation. The body weight of each mouse was recorded. Mice were administered either a 1, 3, 10, or 30 mg/kg s.c. dose of compound solution (volume of injection 260-330 μL based on body weight). […] The total number of head-twitches over the 15 minute period were recorded. Five mice were used per dose.
DOI was tested at the doses of 0.3, 1, 3, and 10 mg/kg (s.c., 5 mice per dose) and testing began immediately after administration of the compound. Ariadne was tested at the doses of 1, 3, 10, and 30 mg/kg (s.c., 5 mice per dose) and there was a 10 min interval between treatment and testing.

Data set [2] in a line: Pharmacokinetic assessment, plasma and brain. To be noted: SC 10 mg/kg; for Mean brain Concentration (ng/g): LLOQ 2.06 ng/mL for brain. The class given is in vivo, male C57BL/6 mice. As for the experimental part: PK assessments were performed at Sai Life (Telangana, India) according to the following general procedure. A total twenty-seven male C57BL/6 mice were used in this study with 3 mice per time point. Animals were administered subcutaneously at 10 mg/kg dose of test article. The formulation vehicle used was 0.9% normal saline. Blood samples (approximately 60 μL) were collected under light isoflurane anesthesia (Surgivet®) from retro orbital plexus from a set of three mice at 0.08, 0.25, 0.5, 1, 2, 4, 8, 24 and 48 hr. Immediately after blood collection, plasma was harvested by centrifugation at 4000 rpm, 10 min at […] and samples were stored at −70±10° C. until bioanalysis. Following blood collection, immediately animals were sacrificed followed by cutting abdominal vena-cava and whole body was perfused from heart using 10 mL of normal saline. Brain samples were collected from set of three mice at 0.08, 0.25, 0.5, 1, 2, 4, 8, 24 and 48 hr. After isolation, brain samples were rinsed three times in ice cold normal saline (for 5-10 seconds/rinse using ˜5-10 mL normal saline in disposable petri dish for each rinse) and dried on blotting paper. Brain samples were homogenized using ice-cold phosphate buffer saline (pH−7.4). Total homogenate volume was three times the tissue weight. All homogenates were stored below −70±10° C. until bioanalysis. All samples were processed for analysis by protein precipitation method and analyzed with fit-for-purpose LC-MS/MS method (LLOQ=5.16 ng/mL for plasma and 2.06 ng/mL for brain).

The target in data set [3] is T1, 5-HT2A (Homo sapiens, UniProt P28223). The experiment in a line: G protein (Gq) dissociation BRET assay. On the set-up: host or cells: HEK293T (ATCC CRL-11268). The class given is cell-based.
T1 sequence (P28223 whole entry): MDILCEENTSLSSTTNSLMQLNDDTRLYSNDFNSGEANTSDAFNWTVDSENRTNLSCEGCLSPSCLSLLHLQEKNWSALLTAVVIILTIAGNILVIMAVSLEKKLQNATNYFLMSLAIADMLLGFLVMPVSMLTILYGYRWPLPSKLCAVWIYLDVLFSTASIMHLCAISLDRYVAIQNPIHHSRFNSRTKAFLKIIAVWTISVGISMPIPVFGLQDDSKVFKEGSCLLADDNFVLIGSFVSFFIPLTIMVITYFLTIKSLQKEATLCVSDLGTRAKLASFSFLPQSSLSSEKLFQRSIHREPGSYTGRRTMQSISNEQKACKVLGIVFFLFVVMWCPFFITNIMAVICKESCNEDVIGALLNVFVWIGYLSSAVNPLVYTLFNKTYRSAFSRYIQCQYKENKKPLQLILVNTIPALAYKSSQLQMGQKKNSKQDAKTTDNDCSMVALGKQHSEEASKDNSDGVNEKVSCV
The target in data set [4] is T1, 5-HT2A. In words: IP1 agonism (IP1 formation assay), Cerep, Eurofins. The class given is cell-based. Further details: purchased Cerep, Eurofins (contract assay). To be noted: duplicate averages only. An excerpt:
(§1) FIGS. 8A-B Comparison of 5-HT2A (a) and 5-HT2B (b) receptor in IP1 formation assay for selected compounds, performed at Cerep, Eurofins.
(§2) IP1 agonism summary for selected compounds (duplicate averages only), performed at Cerep, Eurofins.

Data set [5] has as its target T2, 5-HT2B (Homo sapiens, UniProt P41595). In words: IP1 agonism (IP1 formation assay), Cerep, Eurofins. The class given is cell-based. Further details: purchased Cerep, Eurofins (contract assay). The following applies: duplicate averages only.
Source text: as §1, §2

Data set [6] deals with T2, 5-HT2B. In words: G protein (Gq) dissociation BRET assay.
Experimental: (§3) All BRET assays were conducted using BRET2 in HEK293T cells (ATCC CRL-11268; mycoplasma-free), which were subcultured in high-glucose DMEM (VWR) supplemented with 10% FBS (Life Technologies).
(§4) Constructs in G protein-dissociation BRET assays were derived from the codon-optimized Tango pcDNA3.1 library (Addgene) with V2tail/TEV/tTA encoding regions deleted to yield “de-Tango” constructs. […] All Gα-Rluc8, Beta, and GFP2-γ constructs were derived from the TRUPATH pcDNA5/FRT/TO library (Addgene).
(§5) Approximately 48 hours before assays, cells were transfected using a reverse transfection method and plated in 1% dFBS at an approximate density of 15,000 cells per well into poly-L-lysine-coated 384-well white assay plates (Grenier Bio-One). For G protein-dissociation assays, cells were transfected in a 1:1:1:1 ratio of receptor: Gα-Rluc8: Beta: GFP2-γ constructs. […] All transfections were prepared in Opti-MEM (Invitrogen) and used a 3:1 ratio of TransIT-2020 (Mirus) uL:ug total DNA.
On the day of the assay, plates were decanted and 20 uL of drug buffer per well (1×HBSS, 20 mM HEPES, pH 7.4) was added using a Multidrop (ThermoFisher Scientific), and plates were allowed to equilibrate at 37° C. in a humidified incubator before receiving drug stimulation. Drug dilutions of all compounds were performed in McCorvy buffer (1×HBSS, 20 mM HEPES, pH 7.4, supplemented with 0.3% BSA fatty acid free (GoldBio), and 0.03% ascorbic acid). […] Next, plates were incubated at 37° C. in a humidified incubator for 60 minutes or specified time point. Before reading, addition of coelenterazine 400a (5 uM final concentration; Nanolight Technology) was performed by the [sequence]. Immediately after, plates were read at 400 nm Rluc and fluorescent GFP2 emission at 510 nm for BRET2 at 0.8 second per well using a PheraStarFSX (BMB Lab Tech).
(§6) The BRET ratios of 510/400 luminescence were calculated per well and were plotted as a function of drug concentration using Graphpad Prism 5 or 9 (Graphpad Software Inc., San Diego, CA). Data were normalized to % positive control stimulation and analyzed using nonlinear regression “log(agonist) vs. response” to yield Emax and EC50 parameter estimates.
For data set [7], the target named is 5-HT7a receptor (Homo sapiens, UniProt P34969). The experiment in a line: 5-HTome G protein activation BRET assay. The following applies: 5-HTome screen.
5-HT7a receptor, sequence (P34969 1-445 isoform P34969-2): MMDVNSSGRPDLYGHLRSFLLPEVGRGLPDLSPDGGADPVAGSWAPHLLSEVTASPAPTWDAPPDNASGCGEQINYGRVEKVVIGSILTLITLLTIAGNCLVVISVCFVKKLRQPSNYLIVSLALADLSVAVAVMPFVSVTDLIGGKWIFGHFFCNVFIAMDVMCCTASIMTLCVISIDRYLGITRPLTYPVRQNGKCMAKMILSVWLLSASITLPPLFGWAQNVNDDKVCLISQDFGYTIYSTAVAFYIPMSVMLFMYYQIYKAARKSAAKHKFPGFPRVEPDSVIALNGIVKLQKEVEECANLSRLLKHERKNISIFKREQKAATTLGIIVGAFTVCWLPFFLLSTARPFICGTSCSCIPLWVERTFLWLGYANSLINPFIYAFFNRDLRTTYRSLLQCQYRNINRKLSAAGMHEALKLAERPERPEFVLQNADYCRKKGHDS
Experimental: as §3, §4, §5
On the day of the assay, plates were decanted and 20 uL of drug buffer per well (1×HBSS, 20 mM HEPES, pH 7.4) was added using a Multidrop (ThermoFisher Scientific), and plates were allowed to equilibrate at 37° C. in a humidified incubator before receiving drug stimulation. Drug dilutions of all compounds were performed in McCorvy buffer (1×HBSS, 20 mM HEPES, pH 7.4, supplemented with 0.3% BSA fatty acid free (GoldBio), and 0.03% ascorbic acid). […] Before reading, addition of coelenterazine 400a (5 uM final concentration; Nanolight Technology) was performed by the [sequence]. Immediately after, plates were read at 400 nm Rluc and fluorescent GFP2 emission at 510 nm for BRET2 at 0.8 second per well using a PheraStarFSX (BMB Lab Tech).
as §6
Where [8] appears, read: EC50, agonist activity, 5-HTome screen.

T2 sequence (P41595 whole entry): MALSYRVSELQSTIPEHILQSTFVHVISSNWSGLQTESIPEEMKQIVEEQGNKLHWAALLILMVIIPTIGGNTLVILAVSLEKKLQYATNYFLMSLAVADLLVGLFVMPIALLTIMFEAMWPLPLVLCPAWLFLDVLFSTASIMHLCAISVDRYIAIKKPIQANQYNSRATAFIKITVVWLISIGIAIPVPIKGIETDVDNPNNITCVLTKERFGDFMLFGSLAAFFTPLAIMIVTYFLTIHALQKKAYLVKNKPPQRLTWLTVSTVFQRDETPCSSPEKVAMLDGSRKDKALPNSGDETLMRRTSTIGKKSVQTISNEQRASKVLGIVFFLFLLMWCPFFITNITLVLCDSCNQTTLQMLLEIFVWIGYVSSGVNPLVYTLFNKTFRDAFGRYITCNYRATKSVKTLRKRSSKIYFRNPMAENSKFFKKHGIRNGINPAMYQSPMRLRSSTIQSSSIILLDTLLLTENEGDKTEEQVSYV

As for `CCC(N)Cc1cc(OC)c(C(F)(F)F)cc1OC` (racemic) [Compound 29, 1-(2,5-dimethoxy-4-(trifluoromethyl)phenyl)butan-2-amine], the “HTR in presence of MDL100,907 (volinanserin), 5-HT2A antagonist” value in data set [1] was “completely inhibited”. For the same molecule, the “Mean brain Concentration (ng/g)” value in data set [2] (24 hr) and in data set [2] (48 hr) was “BLQ” throughout. The “Mean plasma Concentration (ng/mL)” value in data set [2] (24 hr, LLOQ 5.16 ng/mL) was “BLQ”; in data set [2] (48 hr, LLOQ 5.16 ng/mL) it was “BLQ”. In data set [2] (male, C57BL/6, mouse, brain and plasma, 0.083 hr, read-out: Brain/Plasma ratio), the Kp at 0.083 h amounted to 4.66. Moreover, in data set [2] (male, C57BL/6, mouse, brain and plasma, 0.25 hr, read-out: Brain/Plasma ratio), the Kp at 0.25 h amounted to 8.91. Besides, the Kp at 0.5 h in data set [2] (male, C57BL/6, mouse, brain and plasma, 0.5 hr, read-out: Brain/Plasma ratio) worked out at 8.93. In addition, the Kp at 1 h in data set [2] (male, C57BL/6, mouse, brain and plasma, 1 hr, read-out: Brain/Plasma ratio) was 18.1. In addition, the Kp at 2 h in data set [2] (male, C57BL/6, mouse, brain and plasma, 2 hr, read-out: Brain/Plasma ratio) stood at 18.2. Besides, the Kp at 4 h in data set [2] (male, C57BL/6, mouse, brain and plasma, 4 hr, read-out: Brain/Plasma ratio) was 15.2. The Kp at 8 h in data set [2] (male, C57BL/6, mouse, brain and plasma, 8 hr, read-out: Brain/Plasma ratio) is 12.7. Besides, the concentration at 0.083 hr amounted to 2010 ng/g in data set [2] (male, C57BL/6, mouse, brain, 0.083 hr, read-out: Mean brain Concentration) and 431 ng/mL in data set [2] (male, C57BL/6, mouse, plasma, 0.083 hr, read-out: Mean plasma Concentration). In addition, the concentration at 0.25 hr in data set [2] (male, C57BL/6, mouse, brain, 0.25 hr, read-out: Mean brain Concentration) turned out to be 4160 ng/g; in data set [2] (male, C57BL/6, mouse, plasma, 0.25 hr, read-out: Mean plasma Concentration) it was 467 ng/mL. The concentration at 0.5 hr in data set [2] (male, C57BL/6, mouse, brain, 0.5 hr, read-out: Mean brain Concentration) was 3770 ng/g; in data set [2] (male, C57BL/6, mouse, plasma, 0.5 hr, read-out: Mean plasma Concentration) it was 422 ng/mL. Besides, the concentration at 1 hr is 3900 ng/g in data set [2] (male, C57BL/6, mouse, brain, 1 hr, read-out: Mean brain Concentration) and 216 ng/mL in data set [2] (male, C57BL/6, mouse, plasma, 1 hr, read-out: Mean plasma Concentration). Besides, the concentration at 2 hr in data set [2] (male, C57BL/6, mouse, brain, 2 hr, read-out: Mean brain Concentration) worked out at 1740 ng/g; in data set [2] (male, C57BL/6, mouse, plasma, 2 hr, read-out: Mean plasma Concentration), 95.5 ng/mL. In addition, the concentration at 4 hr in data set [2] (male, C57BL/6, mouse, brain, 4 hr, read-out: Mean brain Concentration) came to 787 ng/g; in data set [2] (male, C57BL/6, mouse, plasma, 4 hr, read-out: Mean plasma Concentration), 51.9 ng/mL. The concentration at 8 hr in data set [2] (male, C57BL/6, mouse, brain, 8 hr, read-out: Mean brain Concentration) was 170 ng/g; in data set [2] (male, C57BL/6, mouse, plasma, 8 hr, LLOQ 5.16 ng/mL, read-out: Mean plasma Concentration), 13.4 ng/mL. Besides, the Cmax was 4160 ng/g in data set [2] (male, C57BL/6, mouse, brain, read-out: Cmax (ng/g), brain) and 467 ng/mL in data set [2] (male, C57BL/6, mouse, plasma, read-out: Cmax (ng/mL), plasma). For the same molecule, the half-life in data set [2] (male, C57BL/6, mouse, brain, read-out: T1/2 (hr), brain (converted)) was 1.79 h; in data set [2] (male, C57BL/6, mouse, plasma, read-out: T1/2 (hr), plasma (converted)), 2.11 h. For the same molecule, the Tmax is 0.25 h in data set [2] (male, C57BL/6, mouse, brain, read-out: Tmax (hr), brain) and 0.25 h in data set [2] (male, C57BL/6, mouse, plasma, read-out: Tmax (hr), plasma). Besides, in data set [2] (male, C57BL/6, mouse, plasma, read-out: AUClast (hr*ng/mL), plasma), the AUC(0-t) is 798 ng·h/mL. The “selectivity for 5-HT2A over 5-HT2B” value in data set [3] (by Gq dissociation signaling potency) came to 8 fold. Besides, the EC50 amounted to 5e-08 M in data set [4] (5-HT2a (IP1 agonism), Table 2); 6.3e-08 M in data set [4] (EC50 (5-HT2A) (M), Table 7, IP1 agonism); 6.3e-07 M in data set [5] (5-HT2b (IP1 agonism), Table 2); 4e-07 M in data set [5] (EC50 (5-HT2B) (M), Table 7, IP1 agonism).

As to `CC[C@@H](N)Cc1cc(OC)c(C)cc1OC` [(R)-Ariadne], the “HTR in presence of MDL100,907 (volinanserin), 5-HT2A antagonist” value in data set [1] is “completely inhibited”. The “dose of maximum (peak) HTR” value in data set [1] (s.c.) was determined as 10 mg/kg. Moreover, the Emax in data set [3] (5-HTome screen, read-out: Emax, agonist activity) is more than 70%; in data set [3] (Gq dissociation BRET, normalized to 5-HT, read-out: Emax (Emax/Gq) relative to 5-HT) it was 75%; in data set [6] (read-out: Emax, agonist activity) it was more than 70%. Besides, the concentration for a half-maximal effect (EC50) was 149 nM in data set [3] (EC50 (EC50/Gq), Gq dissociation, Gq dissociation BRET); less than 1000 nM in data set [3] (setting [8]); 739 nM in data set [6] (EC50, Gq dissociation, Gq dissociation BRET); less than 1000 nM in data set [6] (setting [8]). The agonist activity entry in data set [7] is reported as “Little to no agonist activity”.
